Reference: patent US20040121021A1, “Determination of adequate ozone disinfection” (priority 2002, published 2004)
Blank lines part the entries; values can stand above or below the compound they belong to.

Assay: Bleaching of dye-impregnated filter paper strips in flowing ozonated water
Type: physicochemical
Excerpt: Each kind of indicator-impregnated substrate, or Ct strip, must be tested to empirically determine the Ct value range most suitable for that particular combination of indicator and substrate. To empirically determine the Ct value range for a Ct strip having a particular indicator impregnated onto a particular substrate having particular properties, the particular Ct strip is exposed to known concentrations of ozone over incremental periods of time. The resulting color of the substrate is recorded after given increments of time until the color is entirely bleached out or until a maximum desired exposure time has passed. The color of the Ct strip, after each time increment of immersion in a known concentration of ozone, is an accurate measure of the Ct value for an exposed surface. The resulting colors are recorded for comparison use, as on a color chart, for that particular combination of indicator and substrate. Strips of filter paper ½″×2″ were cut and immersed in a 1000 ppm solution of Solvent Green 3 (1,4-bis[(4-methylphenyl)amino]-9,10-anthracenedione) in acetone for 5 seconds at room temperature. When dyed in this manner, strips were initially an extremely dark green and dried to a medium green color. When submerged in a flowing bath of 3 ppm ozone dissolved in water, bleaching was observed. […] Strips of filter paper ½″×2″ were cut and immersed in a 1000 ppm solution of Solvent Red 23 in acetone for 5 seconds at room temperature. When submerged in a flowing bath of 5 ppm ozone dissolved in water, bleaching was observed. […] Strips of filter paper ½″×2″ were cut and immersed in a 1000 ppm solution of Solvent Violet 13 in acetone for 5 seconds at room temperature. When submerged in a flowing bath of 5 ppm ozone dissolved in water, bleaching was observed. […] Strips of filter paper ½″×2″ were cut and immersed in a 500 ppm solution of Solvent Yellow 33 in acetone for 5 seconds at room temperature. When submerged in a flowing bath of 6 ppm ozone dissolved in water, bleaching was observed.

color loss (filter paper strip dyed in 1000 ppm solution in acetone, flowing bath of 3 ppm ozone dissolved in water, after 90 minutes): ~40%
SMILES: Cc1ccc(Nc2ccc(Nc3ccc(C)cc3)c3c2C(=O)c2ccccc2C3=O)cc1 [Solvent Green 3, 1,4-bis[(4-methylphenyl)amino]-9,10-anthracenedione]

color loss (filter paper strip dyed in 1000 ppm Solvent Red 23 solution in acetone, flowing bath of 5 ppm ozone dissolved in water, after 90 minutes): ~30%
SMILES: Oc1ccc2ccccc2c1N=Nc1ccc(N=Nc2ccccc2)cc1 [Solvent Red 23]

color loss (filter paper strip dyed in 1000 ppm Solvent Red 23 solution in acetone, flowing bath of 5 ppm ozone dissolved in water, after 240 minutes): ~75%
SMILES: Cc1ccc(Nc2ccc(O)c3c2C(=O)c2ccccc2C3=O)cc1 [Solvent Violet 13]

color loss (filter paper strip dyed in 500 ppm solution in acetone, flowing bath of 6 ppm ozone dissolved in water, after 20 minutes): complete color loss
SMILES: O=C1c2ccccc2C(=O)C1c1ccc2ccccc2n1 [Solvent Yellow 33]
